This data set can be described thus: CuAAC macrocyclisation to 1,4-triazole (CuI 2 eq, DIPEA 3 eq), Boc retained. To be noted: THF (reflux), 1.2 mM, 66.0 °C, 18.0 h.

`COC(=O)[C@@H]1CCCCn2cc(nn2)CNC(=O)NC[C@H](NC(=O)OC(C)(C)C)C(=O)N[C@H](C(=O)OC)CCC(=O)N1` [Boc-Dap(CONH-propargyl)-Glu(gamma-Lys(N3)-OMe)-OMe] yielded a ring closure, isolated yield (from C#CCNC(=O)NC[C@H](NC(=O)OC(C)(C)C)C(=O)N[C@@H](CCC(=O)N[C@@H](CCCCN=[N+]=[N-])C(=O)OC)C(=O)OC, 21-membered ring) of 99%.
Molecule `COC(=O)[C@@H]1CCCCn2cc(nn2)CCCC(=O)NC[C@H](NC(=O)OC(C)(C)C)C(=O)N[C@H](C(=O)OC)CCC(=O)N1` [Boc-Dap(5-hexynoyl)-Glu(gamma-Lys(N3)-OMe)-OMe] returned a ring closure, isolated yield (from C#CCCCC(=O)NC[C@H](NC(=O)OC(C)(C)C)C(=O)N[C@@H](CCC(=O)N[C@@H](CCCCN=[N+]=[N-])C(=O)OC)C(=O)OC, 22-membered ring) of 69%.
`COC(=O)[C@@H]1CCCCn2cc(nn2)CCCC(=O)NCCC[C@H](NC(=O)OC(C)(C)C)C(=O)N[C@H](C(=O)OC)CCC(=O)N1` [Boc-Orn(5-hexynoyl)-Glu(gamma-Lys(N3)-OMe)-OMe] registered a ring closure, isolated yield (from C#CCCCC(=O)NCCC[C@H](NC(=O)OC(C)(C)C)C(=O)N[C@@H](CCC(=O)N[C@@H](CCCCN=[N+]=[N-])C(=O)OC)C(=O)OC, 24-membered ring) of 99%.
For the setting “from C#CCNC(=O)NCC[C@H](NC(=O)OC(C)(C)C)C(=O)N[C@@H](CCC(=O)N[C@@H](CCCCN=[N+]=[N-])C(=O)OC)C(=O)OC, 22-membered ring”, `COC(=O)[C@@H]1CCCCn2cc(nn2)CNC(=O)NCC[C@H](NC(=O)OC(C)(C)C)C(=O)N[C@H](C(=O)OC)CCC(=O)N1` [Boc-Dab(CONH-propargyl)-Glu(gamma-Lys(N3)-OMe)-OMe] returned a ring closure, isolated yield of 67%.
For the setting “from C#CCCCC(=O)Nc1ccc(C[C@H](NC(=O)OC(C)(C)C)C(=O)N[C@@H](CCC(=O)N[C@@H](CCCCN=[N+]=[N-])C(=O)OC)C(=O)OC)cc1, 26-membered ring”, `COC(=O)[C@@H]1CCCCn2cc(nn2)CCCC(=O)Nc2ccc(cc2)C[C@H](NC(=O)OC(C)(C)C)C(=O)N[C@H](C(=O)OC)CCC(=O)N1` [Boc-Phe(4-NH-5-hexynoyl)-Glu(gamma-Lys(N3)-OMe)-OMe] registered a ring closure, isolated yield of 12%.
Regarding `COC(=O)[C@@H]1CCCCn2cc(nn2)CCC(=O)NC[C@H](NC(=O)OC(C)(C)C)C(=O)N[C@H](C(=O)OC)CCC(=O)N1` [Boc-Dap(4-pentynoyl)-Glu(gamma-Lys(N3)-OMe)-OMe], the ring closure, isolated yield (from C#CCCC(=O)NC[C@H](NC(=O)OC(C)(C)C)C(=O)N[C@@H](CCC(=O)N[C@@H](CCCCN=[N+]=[N-])C(=O)OC)C(=O)OC, 21-membered ring) came out at 94%.

Source of the values: article PMC4441267.
